{"source": "patent US20260115331A1", "about": "“PET IMAGING OF BACTERIAL INFECTION WITH A PET PROBE” (Mayo Foundation for Medical Education and Research, priority 2022, published 2026)", "key": {"E coli": {"test_system": "E coli", "assay": "Biodistribution in thigh infected mice (E. coli) at 120 min post injection", "assay_type": "in vivo", "details": "n = 4, 2 h post infection with E coli", "from_the_text": "The feasibility of the developed PET probe [^68Ga]Ga-H3P2O8 in a mouse model of thigh infection as well as uptake in E. coli has been evaluated. […] The biodistribution of developed PET probe in normal and in thigh infected mice has been assessed (see FIG. 11). […] Micro-PET imaging of normal and thigh-infected mice has also been performed. The site of bacterial infection was evident on micro-PET images (see FIG. 13) with arrows in contrast to the non-infected group of mice. The bacterial site of infection on micro-PET images was confirmed by bacterial culture performed on the biopsied sample. Micro-PET imaging was performed at different time intervals to optimize imaging time."}, "[1]": {"assay": "PET/CT image analysis (SUV) in normal rat model", "assay_type": "in vivo, rats", "details": "for SUV (Average ± SD), Normal Tibia: Normal group", "procedure": "(§1) The PET probe [^68Ga]Ga-H3P2O8 was evaluated in methicillin-resistant S. aureus (MRSA) foreign-body osteomyelitis in the left tibia with a stainless steel Kirschner wire (K-wire) implant in male Wister rats, following a previously established protocol [Ref. 17]. Briefly, a 1 cm incision was made on the medial tibia and the bone exposed. A 1.5 mm hole was drilled, 0.01 mL of arachidonic acid (a sclerosing agent) and 0.05 mL of a suspension containing MRSA DRL-6169 at 10^8 cfu/mL was injected into the bone. A 5 mm threaded stainless-steel K-wire was inserted. The hole was closed with dental gypsum and the site closed. After implantation, the muscle and fascia were closed with 3-0 vicryl using simple interrupted sutures. The skin was closed with sterile wound clips and VetBond. The wound was sprayed with Aluspray and Chew Guard. After 7 days of implantation of wire, the animal was put on iron-deficient diet for 7 days and on the day of imaging, the animals were fasted for 4 hours prior to the injection of the PET probe. [^68Ga]Ga-H3P2O8 (32.81±6.28 MBq, n=18) were injected into the rat model via tail vein injection. The rat model was either a normal rat model or an osteomyelitis foreign body rat model or an inflamed foreign body rat model. PET/CT images were acquired at 15 minutes, 30 minutes, 60 minutes, and 120 minutes post-injection using Siemens Inveon MicroPET/CT Scanner (see FIGS. 17, 18, and Table 2).\n(§2) The acquired PET images were visualized and analyzed for quantifying standardized uptake value (SUV) using image analysis software—MIM 7 software and PMOD. Following final imaging at 120 minutes post-injection, the animal was euthanized, and major organs and infected and inflamed tibia were extracted for gamma counting for ex-vivo biodistribution analysis (see FIG. 22). At the end of last imaging session, rats were euthanized by cardiectomy, and the operated tibia with K-wire or contralateral tibia were aseptically removed. Following removal, tibias were weighed, and Ga-68 radioactivity was counted in 2480 Wizard2 automatic gamma counter for ex-vivo biodistribution assessment. The tibias were then frozen to −80° C. The frozen tibia from each animal was crushed aseptically using a bone pulverizer chilled at −80° C. The crushed tibia without K wire was weighed and vortexed in 1 mL sterile saline. The K wire was also vortexed in 1.0 mL sterile saline separately. The vortexed tibia and K-wire saline suspension were sonicated for 5 minutes. After sonication, 1:10 serial dilutions were prepared in saline and 0.1 mL of each dilution was plated in Trypticase Soy Agar plates with 5% Sheep Blood (TSA II). After 24 hours of incubation at 37° C., the bacterial cultures in tibia suspension and K-wire suspension were quantified. In the 2-week-old osteomyelitis model used in the study, the infected tibia contained 7.00±0.19 log10 cfu/g tibia (n=10) and 5.41±0.40 log10 cfu/K-wire (n=10)."}, "[2]": {"assay": "PET image analysis (SUV) of inflamed tibia in foreign body inflammation rat model", "assay_type": "in vivo, rats", "details": "each time point up to 120 minutes (FIG. 27)", "procedure": "as §1\nTo assess the preferential uptake of novel [^68Ga]Ga-H3P2O8 PET probe in infection as compared to inflammation, the same surgery and imaging was performed but omitted the MRSA. […] The probe [^68Ga]Ga-H3P2O8 was also successfully used to detect thigh infection caused by E coli in a mouse model.\nTo further investigate the selectivity of [^68Ga]Ga-H3P2O8 for imaging infection over inflammation, this novel probe was compared to other PET imaging probes, [^68Ga]Ga-Citrate and [^18F]FDG in an inflammation model. In a side-by-side study, all three probes were used to image inflammation (i.e., an inflamed tibia) in an osteomyelitis foreign body rat model."}, "[3]": {"test_system": "Methicillin-resistant Staphylococcus aureus (MRSA)", "assay": "Ex vivo biodistribution SUV ratios (operated tibia/contralateral tibia), MRSA infection and inflammation", "assay_type": "in vivo, rats", "details": "120 minutes post-injection, p<0.05 (FIG. 31)", "procedure": "The acquired PET images were visualized and analyzed for quantifying standardized uptake value (SUV) using image analysis software—MIM 7 software and PMOD. Following final imaging at 120 minutes post-injection, the animal was euthanized, and major organs and infected and inflamed tibia were extracted for gamma counting for ex-vivo biodistribution analysis (see FIG. 22). At the end of last imaging session, rats were euthanized by cardiectomy, and the operated tibia with K-wire or contralateral tibia were aseptically removed. Following removal, tibias were weighed, and Ga-68 radioactivity was counted in 2480 Wizard2 automatic gamma counter for ex-vivo biodistribution assessment. The tibias were then frozen to −80° C. […] After 24 hours of incubation at 37° C., the bacterial cultures in tibia suspension and K-wire suspension were quantified. […]\nTurning now to FIG. 28, the localization of [^68Ga]Ga-H3P2O8 at an infection was investigated in comparison to [^68Ga]Ga-Citrate and [^18F]FDG. The uptake of [^68Ga]Ga-H3P2O8, [^68Ga]Ga-citrate and [^18F]FDG at 120 minutes post-injection in areas of Methicillin-resistant Staphylococcus aureus (MRSA) infection was determined by ex vivo biodistribution. Additionally, the uptake of [^68Ga]Ga-H3P2O8, [^68Ga]Ga-citrate and [^18F]FDG at 120 minutes post-injection in an inflammation was determined similarly. […]"}, "[4]": {"test_system": "Klebsiella pneumoniae (K. pneumoniae)", "assay": "Ex vivo biodistribution in osteomyelitis foreign body rat model with K. pneumoniae infection vs inflammation model", "parameters": "species or system rats", "details": "120 minutes post-injection, comparable SUVs except bladder and feces (FIG. 34)", "procedure": "as §2, with “In the 2-week-old osteomyelitis model used in the study, the infected tibia contained 7.00±0.19 log10 cfu/g tibia (n=10) and 5.41±0.40 log10 cfu/K-wire (n=10).” left out"}}}
{"smiles": "O=P(O)(O)[O][Ga]1[O]P(=O)(O)[O]1", "note": "[[^68Ga]Ga-H3P2O8, [^68Ga]Ga-hydrogen bisphosphate]", "values": [{"measurement": "SUV ± STD, Adipose", "setting": "E coli; Adipose", "value": "0.34 ± 0.34", "unit": "SUV"}, {"measurement": "SUV ± STD, Bladder", "setting": "E coli; Bladder", "value": "3.11 ± 3.0", "unit": "SUV"}, {"measurement": "SUV ± STD, Blood", "setting": "E coli; Blood", "value": "1.83 ± 0.20", "unit": "SUV"}, {"measurement": "SUV ± STD, Bone", "setting": "E coli; Bone", "value": "2.73 ± 1.12", "unit": "SUV"}, {"measurement": "SUV ± STD, Brain", "setting": "E coli; Brain", "value": "0.81 ± 1.5", "unit": "SUV"}, {"measurement": "SUV ± STD, Cecum", "setting": "E coli; Cecum", "value": "1.74 ± 0.55", "unit": "SUV"}, {"measurement": "SUV ± STD, Eye", "setting": "E coli; Eye", "value": "3.86 ± 1.71", "unit": "SUV"}, {"measurement": "SUV ± STD, Feces", "setting": "E coli; Feces", "value": "0.93 ± 0.43", "unit": "SUV"}, {"measurement": "SUV ± STD, Gut", "setting": "E coli; Gut", "value": "1.78 ± 0.10", "unit": "SUV"}, {"measurement": "SUV ± STD, Heart", "setting": "E coli; Heart", "value": "0.61 ± 0.14", "unit": "SUV"}, {"measurement": "SUV ± STD, Infected Thigh", "setting": "E coli; Infected Thigh", "value": "1.12 ± 0.43", "unit": "SUV"}, {"measurement": "SUV ± STD, Kidney-1", "setting": "E coli; Kidney-1", "value": "3.24 ± 1.19", "unit": "SUV"}, {"measurement": "SUV ± STD, Kidney-2", "setting": "E coli; Kidney-2", "value": "3.28 ± 2.10", "unit": "SUV"}, {"measurement": "SUV ± STD, Liver", "setting": "E coli; Liver", "value": "2.02 ± 0.89", "unit": "SUV"}, {"measurement": "SUV ± STD, Lung-1", "setting": "E coli; Lung-1", "value": "2.13 ± 0.54", "unit": "SUV"}, {"measurement": "SUV ± STD, Lung-2", "setting": "E coli; Lung-2", "value": "3.03 ± 0.53", "unit": "SUV"}, {"measurement": "SUV ± STD, Normal Thigh", "setting": "E coli; Normal Thigh", "value": "0.25 ± 0.05", "unit": "SUV"}, {"measurement": "SUV ± STD, Skin", "setting": "E coli; Skin", "value": "0.88 ± 0.63", "unit": "SUV"}, {"measurement": "SUV ± STD, Spleen", "setting": "E coli; Spleen", "value": "0.80 ± 0.69", "unit": "SUV"}, {"measurement": "SUV ± STD, Stomach", "setting": "E coli; Stomach", "value": "0.48 ± 0.14", "unit": "SUV"}, {"measurement": "SUV (Average ± SD), Normal Tibia", "setting": "[1]; n = 4, 15 min post-injection", "value": "0.76 ± 0.03", "unit": "SUV"}, {"measurement": "SUV (Average ± SD), Normal Tibia", "setting": "[1]; n = 4, 30 min post-injection", "value": "0.76 ± 0.09", "unit": "SUV"}, {"measurement": "SUV (Average ± SD), Normal Tibia", "setting": "[1]; n = 4, 60 min post-injection", "value": "0.80 ± 0.09", "unit": "SUV"}, {"measurement": "SUV (Average ± SD), Normal Tibia", "setting": "[1]; n = 4, 120 min post-injection", "value": "0.89 ± 0.16", "unit": "SUV"}, {"measurement": "SUV (Average ± SD), Muscle in Normal group", "setting": "[1]; n = 4, 15 min post-injection", "value": "0.35 ± 0.10", "unit": "SUV"}, {"measurement": "SUV (Average ± SD), Muscle in Normal group", "setting": "[1]; n = 4, 30 min post-injection", "value": "0.50 ± 0.12", "unit": "SUV"}, {"measurement": "SUV (Average ± SD), Muscle in Normal group", "setting": "[1]; n = 4, 60 min post-injection", "value": "0.49 ± 0.10", "unit": "SUV"}, {"measurement": "SUV (Average ± SD), Muscle in Normal group", "setting": "[1]; n = 4, 120 min post-injection", "value": "0.48 ± 0.09", "unit": "SUV"}, {"measurement": "difference in mean SUV between the probes in inflamed tibia", "setting": "[2]", "value": "no significant difference"}, {"measurement": "uptake as SUV ratios (Operated tibia/contralateral tibia), MRSA vs P. aeruginosa", "setting": "[3]", "value": "significant difference in uptake"}, {"measurement": "distribution in organs/excrement of infected model compared with inflammation model", "setting": "[4]", "value": "similar"}]}
